{"source": "paper PMC10787068", "about": "“Targeting the Mitochondrial Chaperone TRAP1 Alleviates Vascular Pathologies in Ischemic Retinopathy” (Advanced Science, 2023)", "key": {"HIF1α": {"tested_on": "HIF1α", "assay": "HIF1α degradation in MIO‐M1 cells under hypoxia (western blotting)", "assay_type": "cell-based, human", "details": "MIO‐M1 cells, 6 h under hypoxia"}, "[1]": {"assay": "Normal cell cytotoxicity in primary Müller cells (trypan blue staining)", "assay_type": "cell-based", "details": "mouse, primary Müller cells from mouse retina, 24 hr under hypoxia, n = 4, mean ± SEM", "protocol": "(§1) Mouse primary Müller cells were isolated as reported previously.^[ [43] ^] In brief, retinas were isolated from P5–P7 mice and dissociated using a Papain Dissociation Kit (Worthington Industries; Columbus, OH, USA). Collected retinal cells were incubated on a plate coated with 0.1% gelatin (Sigma), and the culture media (DMEM supplemented with 10% FBS and 1% penicillin‐streptomycin) was changed once every 2 days. Cells were subcultured into a new plate and incubated for another 7 days. Adherent cells were largely primary Müller cells, as confirmed by immunocytochemical analysis using an anti‐glutamine synthetase antibody (Millipore). […]\n(§2) bar, 500 μm. B) Quantification of avascular and neovascular tuft areas in OIR mice intravitreally injected with MitoQ (n = 5 mice/group). […] Harvested retinal samples were whole-mounted and analyzed as in (A). […]\n(§3) Scale bar, 500 μm. D) Quantification of avascular and neovascular tuft areas in OIR mice topically treated with MitoQ (n = 6 mice/group). […]\n(§4) their cytotoxic activities were analyzed in four independent experiments by trypan blue staining. The calculated IC50 values are presented in the normal cell cytotoxicity column in Table 1. […] A 3D culture of human corneal epithelium (MCTT HCE) was incubated with 2 mM TRAP1 inhibitors and analyzed by H&E staining.\n(§5) The culture thickness (n = 5) was measured and analyzed (Table S1). […]"}, "[2]": {"tested_on": "mouse primary Müller cells", "assay": "Normal cell cytotoxicity in primary Müller cells (trypan blue staining)", "assay_type": "cell-based", "details": "24 hr under hypoxia, n = 4, mean ± SEM", "protocol": "as §1, §2, §3, §4, §5"}, "OIR mice": {"tested_on": "OIR mice", "assay": "Oxygen‐induced retinopathy (OIR) mouse model, retinal vasculature (CD31 whole‐mount)", "assay_type": "in vivo", "protocol": "Figure 7 Normalized retinal vascularization upon topical application of TRAP1 inhibitors. A) HIF1α degradation induced by TRAP1 inhibitors. MIO‐M1 cells were incubated with various concentrations of TRAP1 inhibitors as indicated for 6 h under hypoxia and analyzed by western blotting. B) Quantification of HIF1α protein degradation. The HIF1α band intensities in western blot data obtained as in (A) were analyzed and compared. The data are mean ± SEM from four independent experiments. C) Vascular structure of P17 OIR mouse retinas after topical drug application. Vehicle and 2 mM TRAP1 inhibitors were topically administered to the left and right eyes, respectively, of OIR mice at P12 once per day for 5 days. At P17, mice were sacrificed and analyzed by whole‐mount staining with an anti‐CD31 antibody and confocal microscopy. Scale bar, 500 µm. D) Quantification of avascular areas and neovascular tuft. Retinal images collected as in (C) were quantitatively analyzed (n = 5 mice/group). Data information: Data are expressed as mean ± SEM. Student t‐test, ^*** P < 0.001; ^* […].\nTo induce OIR (Figure 1A), mouse pups were exposed to 75% oxygen at postnatal day 7 (P7) until P12 together with their mothers in a hyperoxic chamber (InVivo Cabinet Model 15; Coy Laboratory; Grass Lake, MI, USA). Hyperoxia‐exposed pups were returned to room air at P12 with nursing mothers until P17. At P17, mice were sacrificed, and eyes were enucleated.\nFor intravitreal injection, MitoQ was injected into the vitreous cavity using a Nanoliter 2000 microinjector (World Precision Instruments; Sarasota, FL, USA) fitted with glass capillary pipettes under anesthesia. In total, 1 µl MitoQ (0.1 mg/ml) was delivered into the right eye of an OIR mouse once at P12. The contralateral eye was injected with vehicle (0.1% DMSO prepared in distilled water) as a control. […]\nFixed eyes were dissected to isolate retinas under a microscope. […] Fluorescence images were acquired using an Axio Zoom fluorescence microscope (Zeiss; Oberkochen, Germany) or a LSM780 or LSM980 confocal microscope (Zeiss). […]"}, "mouse cornea": {"tested_on": "mouse cornea", "assay": "Corneal toxicity after topical application (H&E staining)", "assay_type": "in vivo", "details": "2 mM once daily for 6 days", "protocol": "their cytotoxic activities were analyzed in four independent experiments by trypan blue staining. The calculated IC50 values are presented in the normal cell cytotoxicity column in Table 1. B) Topical toxicity of TRAP1 inhibitors. A 3D culture of human corneal epithelium (MCTT HCE) was incubated with 2 mM TRAP1 inhibitors and analyzed by H&E staining.\nThe culture thickness (n = 5) was measured and analyzed (Table S1). Scale bar, 25 μm. C) Corneal toxicity. After topical application of 2 mM MitoQ, SB-U014, or SB-U015 once daily for 6 days, the mouse cornea was harvested and analyzed by H&E staining. Treatment with […]\nSupplementary Table 1. Percentage viability and thickness of the 3D culture of MCTT […]\nDrug Percentage viability (%) Thickness (μm)\nA 3D culture of human corneal epithelium (MCTT HCE) was incubated with 2 mM TRAP1 inhibitors, and the percentage viability was analyzed by the WST-1 assay (n = 4). Absorbance was measured with a microplate reader. Thickness was calculated from H&E staining images (n = 5) as in Figure S18B, Supporting information. Data Information: The data are […]"}}, "note": "Entries after “also recorded” stand apart in the source; their conditions may differ."}
{"compound": "COC1=C(OC)C(=O)C(CCCCCCCCCC[P+](c2ccccc2)(c2ccccc2)c2ccccc2)=C(C)C1=O", "note": "[MitoQ, mitoquinone]", "values": [{"measurement": "IC50", "setting": "HIF1α; Homo sapiens, western blot band intensity, n = 4, mean ± SEM", "value": "0.077 ± 0.016", "unit": "µM"}, {"measurement": "potency in inducing the degradation of HIF1α relative to gamitrinib", "setting": "HIF1α", "value": "more than 10 fold"}, {"measurement": "IC50 at 24 h", "setting": "[1]", "value": 22, "unit": "µM"}, {"measurement": "IC50", "setting": "[2]", "value": "22.5 ± 0.46", "unit": "µM"}, {"measurement": "avascular and neovascular tuft areas in OIR mice", "setting": "OIR mice; intravitreal injection, 1 µl of 0.1 mg/ml once at P12, analysed at P17, n = 5 mice/group", "value": "significantly reduced; also recorded: dramatically reduced"}, {"measurement": "avascular and neovascular tuft areas in OIR mice", "setting": "OIR mice; topical, 2 mM once per day for 5 days from P12, analysed at P17, n = 5 mice/group", "value": "reduced"}, {"measurement": "avascular and neovascular tuft areas in OIR mice", "setting": "OIR mice; topical, 10 μl of 1 mM three times daily from P12 to P17, n = 6 mice/group", "value": "reduced; also recorded: potent activity"}, {"measurement": "histologic abnormality of cornea after topical application", "setting": "mouse cornea", "value": "did not cause any noticeable abnormality"}]}
